Like-named read-outs stand apart in the source and are kept apart here.
Tests used:
CB receptors = molecular target: T1, CB receptors (Rattus norvegicus, UniProt P20272); experiment: [3H]WIN55212-2 competition binding in rat brain membrane homogenate; conditions: for displace [3H]WIN55212-2: rat brain membrane homogenate
T1 construct: Crude membrane fractions were prepared from the brain without cerebellum; from tissue; host or cells: Wistar rat brain without cerebellum, crude membrane fraction
Protocol: (§1) Wistar rats were locally bred and handled according to the European Communities Council Directives (86/609/ECC) and the Hungarian Act for the Protection of Animals in Research (XXVlll.tv. Section 32). Crude membrane fractions were prepared from the brain without cerebellum. Brains were quickly removed from the euthanized rats and directly put in ice-cold 50 mM Tris-HCl buffer (pH 7.4). The collected tissue was then homogenized in 30 volumes (v/w) of ice-cold buffer with a Braun Teflon-glass homogenizer at the highest rpm. The homogenate was centrifuged at 20,000 g for 25 min and the resulting pellet was suspended in the same volume of cold buffer followed by incubation at 37°C for 30 min to remove endogenous ligands. Centrifugation was then repeated. The final pellets were taken up in five volumes of 50 mM Tris-HCl (pH 7.4) buffer containing 0.32 M sucrose and stored at -80°C. Prior to the experiment, aliquots were thawed and centrifuged at 20,000 g for 25 min and the were resuspended in 50 mM Tris-HCl (pH 7.4), homogenized with a Dounce in followed by the determination of the protein concentration by the method of Bradford.
Binding experiments were performed at 30 °C for 1 h in 50 mM Tris-HCl buffer pH 7.4 containing 2.5 mM EGTA, 5 mM MgCl2 and 0.5 mg/mL fatty acid free BSA in plastic tubes in a total assay volume of 1 mL that contained 0.3-0.5 mg/mL membrane protein.
Non-specific binding was determined in the presence of 10 µM WIN 55212-2. The incubation was terminated by diluting the samples with ice-cold wash buffer (50 mM Tris-HCl, 2.5 mM EGTA, 5 mM MgCl2, 0.5% fatty acid free BSA, pH 7.4), followed by repeated washing and rapid filtration through Whatman GF/B glass fiber filters (Whatman Ltd, Maidstone, England) presoaked with 0.1% polyethyleneimine (30 min before the filtration). Filtration was performed with a 24-well Brandel Cell Harvester (Gaithersburg, MD, USA). Filters were air-dried and immersed into Ultima Gold MV scintillation cocktail and then radioactivity was measured with a TRI-CARB 2100TR liquid scintillation analyzer (Packard).
(§2) Results are expressed as means ± S.E.M. of at least three independent experiments each performed in duplicate. In competition binding studies, the inhibitory constants (Ki) were calculated from the inflection points of the displacement curves using non-linear least-square curve fitting and the Cheng- Prusoff equation. All data and curves were analyzed by GraphPad Prism 5.0 (San Diego, CA, USA). In [^35S]GTPγS binding studies, data were expressed as the percentage stimulation of the specific [^35S]GTPγS binding over the basal activity and are given as means ± S.E.M. Each experiment was performed in triplicate and analyzed with sigmoid dose-response curve fitting to obtain potency (EC50) and efficacy (Emax) values. Statistical comparison was done by analysis of variance (one-way ANOVA) followed by the Bonferroni multiple comparison test of GraphPad Prism 5.0 (San Diego, CA, USA), P< 0.05 was chosen to indicate significant differences.

[1] = molecular target: CB receptor-associated G-proteins; experiment: Ligand stimulated [35S]GTPγS binding assay in rat brain membrane homogenate; type: biochemical; conditions: for EC50: [35S]GTPγS binding; for EC50 / Emax (%) ±SEM: rat brain membranes; for Emax (%) ±SEM: specific [35S]GTPγS binding, basal set as 100%; for G-protein stimulation (functional character): rat brain membrane homogenate
Protocol: as §1
(§3) Rat brain membranes (30 µg protein/tube) prepared as described above, were incubated with 0.05 nM [^35S]GTPγS (PerkinElmer) and 10^-10-10^-5 M unlabeled ligands in the presence of 30 µM GDP, 100 mM NaCl, 3 mM MgCl2 and 1 mM EGTA in 50 mM Tris-HCl buffer (pH 7.4) for 60 min at 30°C. Basal [^35S]GTPγS binding was measured in the absence of ligands and set as 100%. Nonspecific binding was determined by the addition of 10 µM unlabeled GTPγS and subtracted from total binding. Incubation, filtration and radioactivity measurement of the samples were carried out as described above.
as §2

CB1 receptor = molecular target: T2, CB1 receptor (Rattus norvegicus, UniProt P20272); experiment: CB1/CB2 receptor selectivity by [35S]GTPγS binding assay with rimonabant or AM630; type: biochemical; conditions: compound 10 µM; rimonabant 10 µM (CB1) vs AM630 10 µM (CB2)
T2 construct: Crude membrane fractions were prepared from the brain without cerebellum; from tissue; host or cells: Wistar rat brain without cerebellum, crude membrane fraction
Protocol: Figures represent the specific binding of the radioligand in percentage in the presence of increasing concentrations (10^-10-10^-5 M) of the indicated ligands. "Total" on the x-axis indicates the total specific binding of the radioligand, which is measured in the absence of the unlabeled compounds. […] Figures represent relative specific binding of [^35S]GTPγS in the presence of increasing concentrations (10^-11-10^-5 M) of the indicated compounds. […] The specific binding of [^35S]GTPγS is represented in percentage in the presence or absence of 10 µM rimonabant (CB1 antagonist/inverse agonist) or AM630 (CB2 antagonist/inverse agonist). Data are expressed as percentage of mean specific binding ± S.E.M. (n≥ 3).
as §3
In the next step the compounds were evaluated for CB1/CB2 receptor selectivity by [^35S]GTPγS binding assays. The G-protein stimulatory effect of compounds LONI 1-LONI 9 (10 µM) was reduced by the CB1 receptor antagonist/inverse agonist rimonabant (10 µM) and by the CB2 receptor antagonist/inverse agonist AM630 (10 µM), and a 3-6-fold selectivity for CB1 receptor was observed.

T2 sequence (P20272 whole entry): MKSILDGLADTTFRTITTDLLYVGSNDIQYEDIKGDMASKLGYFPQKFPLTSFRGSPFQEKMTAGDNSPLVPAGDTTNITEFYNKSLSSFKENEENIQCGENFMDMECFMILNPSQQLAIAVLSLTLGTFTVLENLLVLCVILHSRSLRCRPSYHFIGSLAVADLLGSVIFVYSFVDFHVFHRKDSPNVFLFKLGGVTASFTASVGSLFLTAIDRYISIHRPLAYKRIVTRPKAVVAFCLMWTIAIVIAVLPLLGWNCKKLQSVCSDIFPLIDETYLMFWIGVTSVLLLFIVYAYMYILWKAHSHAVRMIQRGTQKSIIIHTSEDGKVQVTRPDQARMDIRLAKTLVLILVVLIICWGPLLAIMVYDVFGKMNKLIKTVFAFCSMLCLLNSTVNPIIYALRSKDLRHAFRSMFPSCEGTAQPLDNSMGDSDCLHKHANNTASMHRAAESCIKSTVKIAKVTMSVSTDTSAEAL
T1 sequence (P20272 whole entry): as above

Row | Structure (SMILES) | Ki (CB receptors; 1.5 nM [3H]WIN55212-2, rat brain membranes, mean of three independent measurements (S.E.M. 5-12%), read-out: Ki (nM)*) | EC50 ([1]; read-out: EC50) | Emax (%) ±SEM [1] | Ki (CB receptors) | EC50 ([1]; read-out: potency) | G-protein stimulation (functional character) [1] | selectivity for CB1 receptor (CB1 receptor) | displace [3H]WIN55212-2 (CB receptors)
1 | CCCCCn1cc(C(=O)c2cccc3ccccc23)c2ccccc21 [JWH-018, reference compound] | 3.5 nM | 16 nM | 163 ± 5.2% |  |  |  |  | 
2 | CC(C)(C)[C@H](NC(=O)c1nn(Cc2ccc(Cl)cc2Cl)c2ccccc12)C(=O)O [LONI 1, (S)-2-(1-(2,4-dichlorobenzyl)-1H-indazole-3-carboxamido)-3,3-dimethylbutanoic acid] |  | 2800 nM | 84 ± 6.6% | 0.08 nM | 1800 to 3200 nM | weak inverse agonist activity |  | 
3 | COC(=O)[C@@H](NC(=O)c1nn(Cc2ccc(Cl)cc2Cl)c2ccccc12)C(C)(C)C [LONI 2, (S)-methyl 2-(1-(2,4-dichlorobenzyl)-1H-indazole-3-carboxamido)-3,3-dimethylbutanoate] |  | 8.4 nM | 143 ±5.7% | 3.1 nM |  |  |  | 
4 | CC(C)(C)[C@H](NC(=O)c1nn(Cc2ccc(Cl)cc2Cl)c2ccccc12)C(N)=O [LONI 3, (S)-N-(1-amino-3,3-dimethyl-1-oxobutan-2-yl)-1-(2,4-dichlorobenzyl)-1H-indazole-3 carboxamide] |  | 126 nM | 139 ± 4.5% | 17 nM |  | partial agonists | 6 fold | 
5 | CC(C)[C@H](NC(=O)c1nn(Cc2ccc(Cl)cc2Cl)c2ccccc12)C(=O)O [LONI 4, (S)-2-(1-(2,4-dichlorobenzyl)-1H-indazole-3-carboxamido)-3-methylbutanoic aci] |  | 3290 nM | 82 ± 10.6% | 2.6 nM | 1800 to 3200 nM | weak inverse agonist activity | 3 fold | 
6 | COC(=O)[C@@H](NC(=O)c1nn(Cc2ccc(Cl)cc2Cl)c2ccccc12)C(C)C [LONI 5, (S)-methyl 2-(1-(2,4-dichlorobenzyl)-1H-indazole-3-carboxamido)-3-methylbutanoate] |  |  | 140 ± 3.7% | 1.8 nM |  |  |  | 
7 | CC(C)[C@H](NC(=O)c1nn(Cc2ccc(Cl)cc2Cl)c2ccccc12)C(N)=O [LONI 6, (S)-N-(1-amino-3-methyl-1-oxobutan-2-yl)-1-(2,4-dichlorobenzyl)-1H-indazole-3-carboxamide] |  |  | 135 ± 4.9% | 17 nM |  | partial agonists |  | 
8 | CC(C)C[C@H](NC(=O)c1nn(Cc2ccc(Cl)cc2Cl)c2ccccc12)C(=O)O [LONI 7, (S)-2-(1-(2,4-dichlorobenzyl)-1H-indazole-3-carboxamido)-4-methylpentanoic acid] |  | 1870 nM | 86 ± 9.3% | 43 nM | 1800 to 3200 nM | weak inverse agonist activity |  | 
9 | COC(=O)[C@H](CC(C)C)NC(=O)c1nn(Cc2ccc(Cl)cc2Cl)c2ccccc12 [LONI 8, (S)-methyl 2-(1-(2,4-dichlorobenzyl)-1H-indazole-3-carboxamido)-4-methylpentanoate] |  |  | 122 ± 4.6% | 63 nM |  |  |  | 
10 | CC(C)C[C@H](NC(=O)c1nn(Cc2ccc(Cl)cc2Cl)c2ccccc12)C(N)=O [LONI 9, (S)-N-(1-amino-4-methyl-1-oxopentan-2-yl)-1-(2,4-dichlorobenzyl)-1H-indazole-3-carboxamide] |  |  | 120 ± 5.9% | 88 nM |  | partial agonists | 6 fold | 
11 | O=C(O)c1nn(Cc2ccc(Cl)cc2Cl)c2ccccc12 [LONI A, Lonidamine, reference compound] |  |  |  |  |  | didn't show G-protein stimulation |  | neither LONI A nor its derivatives LONI B and LONI C could displace [^3H]WIN55212-2
12 | NC(=O)c1nn(Cc2ccc(Cl)cc2Cl)c2ccccc12 [LONI B, reference compound] |  | 2780 nM | 70 ± 8.7% |  |  | weak inverse agonist |  | neither LONI A nor its derivatives LONI B and LONI C could displace [^3H]WIN55212-2
13 | COC(=O)c1nn(Cc2ccc(Cl)cc2Cl)c2ccccc12 [LONI C, reference compound] |  | 3160 nM | 69 ± 2.6% |  |  | weak inverse agonist |  | neither LONI A nor its derivatives LONI B and LONI C could displace [^3H]WIN55212-2
